Measurements taken from patent US20170131285A1, “METHODS AND COMPOSITIONS FOR DIAGNOSING, MONITORING AND TREATING CANCER” (INSERM (Institut National de la Sante et de la Recherche …, priority 2014, published 2017).

Legend:
[1] = tested on: MSC2 cells; test: pSTAT3 western blot in MSC2 cells incubated with tumor-derived exosomes; type: cell-based; conditions: exosomes from CT26, B16F10, HCT116, SW480; 4 h and 6 h; aptamer 16 μM
Experimental: FIG. 4: A8 blocks the activation and proliferation of MSC2 cells. (A) IL-6 concentration was determined by ELISA in the supernatant of MSC2 cells incubated or not for 24 h with exosomes (from B16F10) in the presence or absence of A8. *, p<0.05, (n=3). (B) A representative image of a western blot showing the kinetics of STAT3 phosphorylation in MCS2 cells incubated or not with exosomes isolated from B16F10, CT26 or HCT116 cells together with a peptide control (TDE) or A8 (TDE/A8). 14-3-3 is used as a loading control. In the right panels, the amount of pSTAT3 was quantified by densitometric analysis. *, p<0.05, n=4.
Five millions of MSC2 cells were incubated with or without exosomes isolated from B16F10, CT26, HCT116 or SW480 cells in the presence or absence of A8 during 4 h or 6 h. Cells were isolated, lysed and analysed for pSTAT3 by western blotting.
MSC2 (2·10^6) or MDSC (2·10^6) were incubated alone or with exosomes (from B16F10, CT26, HCT116, SW480) in the absence or presence of A8 or A17 (16 μM) during 6 hours (RPMI 10% FBS, 5% of CO2 at 37° C.). Every 2 hours, […] cells were sampled and centrifugated 5 min at 300 g. Cells were lysed in lysis buffer (50 mM HEPES (pH 7.6), 150 mM NaCl, 5 mM EDTA, and 0.1% NP40 and anti-phosphatases, Roche). Then, pSTAT3 and STAT3 expression were analyzed by western blotting.

[2] = tested on: HCT116 cells; test: HSP70-exosomes release from HCT116 cells treated with chemotherapy drugs (BLI, flow cytometry); type: cell-based, human; conditions: for amount of HSP70-exosomes released, extent of increase: HCT116, toxic equivalent concentrations: oxaliplatin 5 μM, 5FU 3 μM, paclitaxel 50 nM, gemcitabin 10 μM, doxorubicin 2.5 μM, BLI; for amount of HSP70-exosomes released, dose-response / number of exosomes at higher doses: HCT116, 48 h; for amount of HSP70-exosomes released, dose-response: concentrations inducing a relatively low amount of cell death, flow cytometry; for number of exosomes at higher doses: doses inducing more than 40% cell death
Experimental: FIG. 7: Effect of chemotherapy drugs on HSP70-exosomes release. A) Association curves of HSP70-exosomes isolated from the supernatant of HCT116 cells treated or not with oxaliplatin (5 μM), 5FU (3 μM), paclitaxel (50 nM), gemcitabin (10 μM) and doxorubicin ([…]). For the BLI, biotinylated A8 was immobilized on streptavidin sensor tips, n=3. B-C) HCT116 cells were treated with 5FU (3, 12, 24 and 36 μM) or oxaliplatin (5, 20, 40 and 60 μM) or doxorubicin (2.5, 10, and 20 μM) during 48 h. B) concentration of HSP70-exosomes released was measured by flow cytometry. C) measured apoptosis of HCT116 (7AAD and FITC-Annexin V).
Cells were cultured in medium depleted from serum-derived exosomes. Supernatants were collected from cell lines and sequentially centrifuged at 300 g for 10 minutes (4° C.) and at 2,000 g for 10 minutes. Then, exosomes were ultracentrifugated at 100,000 g for 70 minutes and washed in PBS. The same protocol was used for urines and blood samples. To evaluate exosome concentrations, we used a Nano Sight LM10 instrument (NanoSight, Amesbury, UK).
Protein-protein interaction experiments were conducted with an Octet Red instrument (ForteBio, USA). The ligand (A8 or TLR2) was biotinylated using EZ-Link NHS-PEG4-biotin (2 nM, 30 min, RT, Thermo Fisher Scientific, Germany) and immobilized on streptavidin sensors (96-well plate black, ForteBio, USA). Functionalized sensors were incubated in PBS (10 min) then incubated with exosomes (10^6, from cancer cells lines or normal cells or mice blood or human urine, for 120 or 600 seconds) or HSP70 (concentration range from 2.5 μM to 0.52 nM) or cmHSP70 (1/1,000). All sensorgrams were corrected for baseline drift by subtracting a control sensor exposed to running buffer only. Each KD was determined with a 1:1 stoichiometry model using a global fit with Rmax unlinked by sensor (ForteBio, Data analysis software version 7.1.0.89).
Exosomes from cancer cells lines or normal cells were bound to surfactant-free white aldehyde-sulfate latex beads ([…], Invitrogen) and concentrated at 1·10^4 beads/μL. Exosomes (30 μg) were incubated with the beads suspension for 15 min and then for 1 h at room temperature (RT) in final volume of 1 mL PBS. Beads were saturated with glycine (100 mM) for 30 minutes at RT and washed twice with PBS supplemented by 3% of FBS. Expression of membranar HSP70 on cells (normal and cancerous) was determined by flow cytometry using cmHSP70 antibody. MSC2 and HCT116 cell death was measured by PS exposure, cells stained with 7AAD and FITC-Annexin V conjugate. All analyses were performed on a LSRII flow cytometer (BD Bioscience).

[3] = tested on: B16F10 tumor-bearing mice; test: HSP70-exosomes in blood of tumor-bearing mice, A8-BLI protocol; type: in vivo, mouse; conditions: cisplatin 5 mg/kg, BLI with A8 ligand
[4] = tested on: B16F10 cells; test: HSP70-exosomes released by cultured B16F10 cells, flow cytometry; type: cell-based, mouse; conditions: cisplatin 25 μM, FACS
Experimental: FIG. 5: A8 anti-tumor effect in mice is associated to MDSC and an immune anti-tumor response. (A) Mice were sc injected with B16F10 cells (5×10^4). On day 4, when tumor size was about 0.9 mm^3, animals were treated every two days until the end of the experiment with A0 or A8 (3 mg/kg dissolved in PBS, i.p injection). On day 5, half the animals were treated with cisplatin as a single dose (CDDP, i.p injection, 5 mg/kg). At day 18, the percentage of Gr1^+ CD11b^+ cells in the spleen collected from the different groups of mice was analyzed by flow cytometry (6 animals per group). As a MDCS negative control (Ctl) we used animals with no tumor cells injected. Right panels, a representative immunoblot of pSTAT3 in the MDSC (Gr1^+ CD11b^+ cells) isolated from the spleen of control animals (A0/PBS) or A8 and CDDP-treated animals (A8/CDDP). 14-3-3 is used as a loading control. (B) Analysis of tumor growth in the animals described above. Tumor size was measured every two days (6 animals per group). […] (C) HSP70-exosomes isolated from B16F10 cells treated or not with cisplatin (CDDP, 25 μM) were determined by flow cytometry. […]
B16F10, CT26, HCT116 and SW480 cells were cultured for 48 h or 24 h with cisplatin (CDDP) treatment in medium depleted from serum-derived exosomes by overnight centrifugation at 100,000 g. […] The concentration of exosomal proteins was quantified by Lowry assay (Biorad). […]

[5] = tested on: B16F10 tumors; test: B16F10 melanoma tumor model in C57/BL6 mice; type: in vivo, mouse; conditions: B16F10 tumor-bearing C57/BL6 mice, day 18; A0 or A8 3 mg/kg i.p. every two days; cisplatin single i.p. dose; 6 animals per group
Experimental: FIG. 5: A8 anti-tumor effect in mice is associated to MDSC and an immune anti-tumor response. (A) Mice were sc injected with B16F10 cells (5×10^4). On day 4, when tumor size was about 0.9 mm^3, animals were treated every two days until the end of the experiment with A0 or A8 (3 mg/kg dissolved in PBS, i.p injection). On day 5, half the animals were treated with cisplatin as a single dose (CDDP, i.p injection, 5 mg/kg). At day 18, the percentage of Gr1^+ CD11b^+ cells in the spleen collected from the different groups of mice was analyzed by flow cytometry (6 animals per group). As a MDCS negative control (Ctl) we used animals with no tumor cells injected. Right panels, a representative immunoblot of pSTAT3 in the MDSC (Gr1^+ CD11b^+ cells) isolated from the spleen of control animals (A0/PBS) or A8 and CDDP-treated animals (A8/CDDP). 14-3-3 is used as a loading control. (B) Analysis of tumor growth in the animals described above. Tumor size was measured every two days (6 animals per group). The white symbols represent the tumors from animals treated with cisplatin. (C) HSP70-exosomes isolated from B16F10 cells treated or not with cisplatin (CDDP, 25 μM) were determined by flow cytometry. Data represent the percentage of MFI+/−SD (n=3); *, p<0.05. (D) Association curves of HSP70-exosomes present in tumor-bearing mice sera treated or not with cisplatin (5 mg/kg). For the biolayer interferometry, biotinylated A8 was immobilized on streptavidin sensor tips. Curves represent mean values of triplicate measurements for each concentration (for each curve, the blood of 5 mice per group was pooled).
Exponentially growing B16F10 were harvested and resuspended in an RPMI medium without FBS. In vivo studies were performed in wild-type C57/BL6 mice (Charles River). B16F10 cells (5·10^4) were injected s.c. into the right flank Tumor volumes were evaluated every 2 days. Mice were treated with a control peptide aptamer A0 (3 mg/kg) or the HSP70 aptamer A8 (3 mg/kg) and half mice were treated with cisplatin (CDDP, […]). The animals were treated according to the guidelines of the Ministère de la Recherche et de la Technologie, France. All experiments were approved by the Comité d'Ethique de l'Université de Bourgogne.
MDSC cell isolation and analysis: Single-cell suspensions were prepared from spleens, and red cells were removed using ammonium chloride lysis buffer. Gr-1+ cells were isolated from spleens of different group of tumor-bearing mice or naive mice by labeling the cells with PE Cy7 Ab to Gr-1, then using magnetic PE Cy7 beads and LS MACS columns (Miltenyi Biotec). For extracellular staining of immune markers, single-cell suspensions were prepared. We incubated 1·10^6 freshly prepared cells with fluorochrome-coupled CD11b antibody (eBioscience). All events were acquired by a BD Bioscience LSR-II device and analyzed with FlowJo (Tree Star).
Animals were killed 18 days after cell injection. The site of tumor cell injection was resected and snap-frozen in liquid nitrogen. An immunohistochemical study of tumor-infiltrating inflammatory cells was performed on acetone-fixed 5 μm cryostat sections.
Next, we tested whether A8 was also able to block the immunosuppressive effect of MDSC in an in vivo cancer model. We performed subcutaneous injection at day 0 of B16F10 cells or media as a control in C57/BL6 mice. When tumor size reached about 0.9 mm^3 ([…]), mice were treated i.p. with a control peptide aptamer (A0) or A8 every two days until the end of the experiment. When indicated, half of the animals received cisplatin (CDDP, […], i.p.) as a single dose. Tumor growth was measured every two days. After 18 days, we analyzed the percentage of MDSC present in mice spleen (6 animals per group) by FACS using the specific markers Gr1^+ and CD11b^+ (FIG. 5A). […]

YCAYYSPRHKTTF (Synthetic Aptamer A17) [reference compound]
STAT3 phosphorylation (activation) in MSC2 induced by tumor-derived exosomes [1]: did not interfere

O=C1[O][Pt]2([NH][C@@H]3CCCC[C@H]3[NH]2)[O]C1=O [oxaliplatin]
amount of HSP70-exosomes released, extent of increase [2]: greater

Nc1ccn([C@@H]2O[C@H](CO)[C@@H](O)C2(F)F)c(=O)n1 [gemcitabine]
amount of HSP70-exosomes released, extent of increase [2]: induce an increase in the amount of HSP70-exosomes

CC(=O)O[C@H]1C(=O)[C@@]2(C)[C@H]([C@H](OC(=O)c3ccccc3)[C@]3(O)C[C@H](OC(=O)[C@H](O)[C@@H](NC(=O)c4ccccc4)c4ccccc4)C(C)=C1C3(C)C)[C@]1(OC(C)=O)CO[C@@H]1C[C@@H]2O [paclitaxel]
amount of HSP70-exosomes released, extent of increase [2]: induce an increase in the amount of HSP70-exosomes

COc1cccc2c1C(=O)c1c(O)c3c(c(O)c1C2=O)C[C@@](O)(C(=O)CO)C[C@@H]3O[C@H]1C[C@H](N)[C@H](O)[C@H](C)O1 [doxorubicin]
amount of HSP70-exosomes released, dose-response [2]: increased with drug concentration
number of exosomes at higher doses [2]: drastically decreased
amount of HSP70-exosomes released, extent of increase [2]: lesser

N.N.[Cl][Pt][Cl] [cisplatin]
amount of HSP70-exosomes released, dose-response [2]: increased with drug concentration
number of exosomes at higher doses [2]: drastically decreased
amount of HSP70-exosomes in the blood [3]: much stronger
amount of HSP70-exosomes released by B16F10 cancer cells [4]: strongly increased
percentage of MDSC (Gr1+ CD11b+) in spleen [5]: 9+/−0.9%

O=c1[nH]cc(F)c(=O)[nH]1 [5-fluorouracil]
amount of HSP70-exosomes released, dose-response [2]: increased with drug concentration
number of exosomes at higher doses [2]: drastically decreased
amount of HSP70-exosomes released, extent of increase [2]: greater
